Measured values as given in patent US11931347B2, “Method of screening for agents for differentiating stem cells” (MINERVA BIOTECHNOLOGIES CORPORATION, priority 2015, dated 2024).

Key:
[1] = tested on: human primed state stem cells; experiment: stem cell drug screening assay on primed state stem cells; type: cell-based; details: 6 uM, 3 days
Method: (§1) The stem cell screening assay, was performed in both the presence and absence of the stem cell growth factors: NME7AB for growing naïve stem cells or FGF for growing primed stem cells. If the cognate growth factor was present, then the biological or small molecule would have to compete away the growth factor to get an effect. Therefore, we expected to see more of an effect when the growth factor, FGF for primed stem cells or NME7AB or NME1 dimers for naïve stem cells, was absent. The effect of the compounds on stem cells was visually determined and compounds were ranked 0-4, with 4 being the greatest effect and 0 being no observable effect. The major effect that was observed was a change from pluripotent stem cell morphology, which is a cobblestone pattern of small round cells with a large nucleus to cytoplasm ratio, to that of differentiating stem cells, which are elongated, large and flattened cells with a smaller nucleus to cytoplasm ratio. […] The compounds were added to a final concentration of 6 uM to either naïve state stem cells or primed state stem cells. In this particular case, the naïve state stem cells were maintained in a naïve state by culturing in a media containing NME7AB or NME1 dimers. However, other methods such as 2i and 5i (Silva et al., 2008, Nichols and Smith, 2009, Theunissen et al., 2014)] can be used to maintain stem cells in a more naïve state. In this case primed state stem cells were cultured in bFGF over a layer of MEFs, although it is known that any bFGF containing media will maintain stem cells in the primed state.
Stem cells whether embryonic or induced pluripotent stem (iPS) cells were cultured in a minimal, serum-free media that contained human recombinant bFGF at a concentration of 8 ng/mL. The stem cells were plated over a layer of inactivated mouse embryonic fibroblasts, aka MEFs, which secrete additional uncharacterized growth factors and cytokines.
(§2) Human naïve state and primed stem cells were cultured in parallel for at least 5 passages to guarantee normal differentiation-free growth. The stem cells were plated in 12-well cell culture plates with 50,000 cells per well. Cells were cultured in their respective media, either bFGF media or NME7AB media for 24 hours. Media was then removed and replaced with media devoid of bFGF or NME7AB, when indicated. Agents being tested for their ability to induce differentiation of naïve stem cells were added to the media at the concentrations indicated. After 72 hours, photographs were taken see FIGS. 1-10.
(§3) Human naïve state and primed stem cells were cultured in parallel for at least 5 passages to guarantee normal differentiation-free growth. The stem cells were plated in 12-well cell culture plates with 50,000 cells per well. Cells were cultured in their respective media, either bFGF media or NME7AB media for 24 hours. Media was then removed and replaced with media devoid of bFGF or NME7AB. […] Media was changed after 48 hours and replaced with fresh media containing the BRD4 inhibitors. After 4 days the experiment was stopped. Photographs were taken and cell pellets collected for further analysis, see FIGS. 11-16.

[2] = tested on: MDA-MB-453 breast cancer cells; experiment: cancer cell proliferation assay (Calcein); type: cell-based; details: 96 hours (FIG. 110)
Method: (§4) Small molecule inhibition of cancer cell proliferation studies were also performed on several cancer sub-types. […] The small molecules of the invention had the most robust effect on T47D breast cancer cells, which are highly positive for MUC1* growth factor receptor, and its activating ligands NME7AB and NME7-X1. […] For the cancer cell proliferation experiment cancer cells were plated at constant densities (6000 cells/well) into a 96-well White-walled/Clear-bottom Tissue Culture Treated plate (Corning Incorporated, Big Flats, N.Y.). Small molecule analogs are added at T=24 hours in media with 2% FBS. Following the addition of the small molecules, the cells remain untouched for 120 hours with visual confirmations/inspections at 24, 48, 72 and 96 hours post plating. At the 120 hour mark a calcein fluorescence assay (Thermo Fisher Scientific, Waltham, Mass.) is performed on the plate. Calcein fluorescence (final concentration 0.5 uM) is used to assess cell viability. Cancer cell fluorescence is measured in a TECAN SAFIRE^2 spectrophotometer plate reader. The plate is then imaged using an Olympus IX71 fluorescence imaging microscope and montage of the resulting images are assembled using ImageJ.

[3] = tested on: DU145 MUC1* positive prostate cancer cells; experiment: cancer cell proliferation assay (Calcein); type: cell-based; details: 96 hours (FIG. 109)
Method: as §4

[4] = tested on: PC-3 MUC1* negative, NME7AB positive prostate cancer cells; experiment: cancer cell proliferation assay (Calcein); type: cell-based; details: 96 hours (FIG. 111)
Method: as §4

[5] = tested on: human naïve state stem cells; experiment: stem cell drug screening assay on naïve state stem cells; type: cell-based; details: 6 uM, 3 days
Method: as §1
Stem cells whether embryonic or induced pluripotent stem (iPS) cells were cultured in a minimal, serum-free media that contained human recombinant NME7AB at a concentration of 2-32 nM wherein 4-8 nM is preferred and 4 nM is more preferred. To facilitate surface attachment, cell culture plates were coated with an anti-MUC1* monoclonal antibody called MN-C3 or C3 or MN-C8 at a concentration of 2-100 ug/mL coating solution, wherein 3-50 ug/mL is preferred and 6-12.5 ug/mL is more preferred. In these experiments, 12.5 ug/mL of MN-C3 was used. Antibody coated plates were incubated at 4 degrees C. overnight prior to plating stem cells. A Rho kinase I inhibitor was added to enhance surface attachment. In some cases, NME7AB was substituted with human recombinant NME1 dimers which also induce stem cells to revert to a naïve-like state.
as §2, §3

T47D breast cancer cells [6] = experiment: cancer cell proliferation assay (Calcein live cell stain); type: cell-based, human; details: for inhibition of growth of T47D cells: live cell Calcein stain, 96 hours (FIG. 113)
Method: These analogs of MN1194 and 1186 were also tested in a cell growth assay (FIGS. 107A1-107H6 and FIG. 108A1-108H6, respectively). In this experiment, both parent compound and analogs thereof were added to normal cell culture media to final concentrations of 40 uM, 20 uM, 10 uM, 5 uM or 2.5 uM. For comparison, previously known cancer cell migration inhibitors SU11274 and MN1204 were included in the same experiment. […] Relative cell proliferation is quantified on a standard plate reader that reads the fluorescence of the Calcein that is taken up by live cells.
Small molecule inhibition of cancer cell proliferation studies were also performed on several cancer sub-types. […] The small molecules of the invention had the most robust effect on T47D breast cancer cells, which are highly positive for MUC1* growth factor receptor, and its activating ligands NME7AB and NME7-X1.
For the cancer cell proliferation experiment cancer cells were plated at constant densities (6000 cells/well) into a 96-well White-walled/Clear-bottom Tissue Culture Treated plate (Corning Incorporated, Big Flats, N.Y.). Small molecule analogs are added at T=24 hours in media with 2% FBS. Following the addition of the small molecules, the cells remain untouched for 120 hours with visual confirmations/inspections at 24, 48, 72 and 96 hours post plating. At the 120 hour mark a calcein fluorescence assay (Thermo Fisher Scientific, Waltham, Mass.) is performed on the plate. Calcein fluorescence (final concentration 0.5 uM) is used to assess cell viability. Cancer cell fluorescence is measured in a TECAN SAFIRE^2 spectrophotometer plate reader. The plate is then imaged using an Olympus IX71 fluorescence imaging microscope and montage of the resulting images are assembled using ImageJ.

T47D breast cancer cells [7] = experiment: cancer cell migration, invasion assay (Platypus/Oris system); type: cell-based, human; details: T47D, 120 hours
Method: We then tested an expanded panel of agents, including agents known to inhibit cancer growth or migration (FIG. 17) (Horm et al., 2012; Meng & Yue, 2014; Zhen et al., 2014), which is characteristic of aggressive or metastatic cancers. We also synthesized a series of novel small molecules, tested them in the stem cell drug screening assay, and then synthesized analogs of the best hits. These small molecules are pictured in FIGS. 18-27. Both the known compounds and the novel compounds were tested in the stem cell drug screening assay. The effects of the small molecules on naïve versus primed state stem cells are shown in the photographs of FIGS. 29-72. The small molecules pictured in FIGS. 17-27 and the biologicals were also tested in a cancer cell migration assay. A structure activity relationship table is seen in FIG. 28. Potent cancer cell migration is characteristic of cancer cell invasion of other tissues and of metastasis. Typical migration assays involve coating a cell culture plate with fibronectin, collagen or the like, plating cancer cells and making a scar across through the cells and measuring the time it takes for the cancer cells to invade the void space. An alternative approach that gives more reliable data is the Platypus System which is a special multi-well cell culture plate with a juxtaposed set of plugs that block off a circle in the center of each well. Cancer cells are plated while the plugs are in place, then they are removed after the cells attach to the plate surface. […] A bar graph summarizing the results of the known anti-migration compounds compared to the anti-MUC1* Fab E6 and the first few small molecules synthesized is shown in FIG. 73. The effect of two novel small molecules MN1186 and MN1194, compared to the known anti-migration molecule SU11274, is shown in FIG. 75A-75U. FIG. 75V is a graph showing the measured inhibition of cancer cell migration at time 0, 24 hours or 48 hours for a number of compounds. […] FIG. 75X is a graph showing how IC50's of the small molecules of the invention were measured and calculated.
Percent inhibition of cancer cell migration was performed in a wound healing assay. The Percent area that the invading cancer cells occupied, in the presence of a drug candidate compared to the controls, was quantified by Image J cell software which enables cell counting from photographs. IC50's were calculated by performing migration experiments at several compound concentrations and then applying Hill's equation. Inhibition of cancer cell proliferation was quantified by automated cell counting in the presence or absence of a drug candidate. Here, the potency of the drug candidate was simply scored 4 for the highest degree of inhibition and 0 for the lowest. […] The effect of each drug candidate was scored 0-4, with 4 being the highest in inhibiting cell proliferation (FIG. 28).
For the cancer cell migration experiment cancer cells were plated at varying densities into an Oris Cell Migration Assay Collagen-1 coated 96-well plate (Platypus Technologies LLC, Madison, Wis.). The Collagen-1 coated 96-well plate incorporates a specific vacuum plug which attaches to the bottom of each well, creating an area in which the cells cannot grow into. Once the cells have been plated at high densities into each well, they are allotted an 18-24 hour time period to attach to the bottom of the wells. Post-24 hour plugs are removed from the plate and then small molecule analogs are added to the wells. Images are taken of each well and represent time 0 (T=0) for each well. Images are taken of the wells at the 24, 48, 72, 96 and 120 hour time points. Data analysis is conducted using the images taken at these specific time point. Images are imported into ImageJ (Rasband, W. S., ImageJ, U. S. National Institutes of Health, Bethesda, Md., USA, http://imagej.nih.gov/ij/, 1997-2016.) and the area remaining free of cells is calculated. […]

[8] = tested on: E-cadherin, fibronectin, vimentin and NF1 expression in naïve stem cells; experiment: RT-PCR of differentiation markers in treated naïve stem cells; type: cell-based, human
Method: FIG. 161 is a graph of RT-PCR measurement of naïve stem cells that have been treated with compounds of the invention. The genes whose expression is measured are E-cadherin, which goes […] as cells undergo epithelial to mesenchymal transition, fibronectin and vimentin, which both increase as stem cells initiate differentiation and NF1, which is one of the first genes to increase when stem cells begin to differentiate down the neural lineage. […] E-cadherin is the opposite; it […] as cells become cancerous. […] Expression of metastatic marker E-cadherin was reduced and expression of differentiation markers fibronectin, vimentin and NF1 were increased (FIG. 162-FIG. 163). Novel compounds of the invention are highly specific. […] Although we discovered that NME1 dimers, NME7AB and NME7-X1 are all activating ligands of the MUC1* growth factor receptor and they bind to its extracellular domain, we have developed ample evidence that both NME7AB and NME7-X1 have other binding partners and can exert oncogenic effects, independent of MUC1*.

| SMILES | effect on primed stem cell pluripotency, growth or differentiation (visually determined) [1] | inhibition of growth of MDA-MB-453 cells [2] | inhibition of growth of DU145 cells [3] | inhibition of growth of PC-3 cells [4] | effect on naïve stem cell pluripotency, growth or differentiation (visually determined) [5] | inhibition of growth of T47D cells (T47D breast cancer cells [6]) | inhibition of cancer cell proliferation relative to parent compounds (T47D breast cancer cells [6]; T47D, Calcein assay after 120 hours, 40-2.5 uM) | inhibition of cancer cell migration (T47D breast cancer cells [7]) | up-regulation of markers of differentiation in naïve stem cells (RT-PCR) [8] |
| --- | --- | --- | --- | --- | --- | --- | --- | --- | --- |
| CCCCNC(=O)N1CCc2c([nH]c3ccccc23)C1C(C)c1ccccc1 (centres unmarked) [MN1130] | modest effect | inhibited the growth | inhibited the growth | inhibited the growth | induced differentiation | severely inhibited growth | – | – | – |
| CC(C)CC1c2[nH]c3cc(F)ccc3c2CCN1C(=O)CNC(=O)OC(C)(C)C (centres unmarked) [MN1227] | – | inhibited the growth | inhibited the growth | inhibited the growth | – | severely inhibited growth | inhibit cancer cell proliferation better than parent compounds | improvements over MN1186 | – |
| CC(C)C1c2[nH]c3ccccc3c2CCN1C(=O)CCCCNC(=O)OC(C)(C)C (centres unmarked) [MN1235] | – | – | – | – | – | – | – | – | failed to induce differentiation |
| CC(C)CC1c2[nH]c3ccccc3c2CCN1C(=O)C1CCC(CNC(=O)OC(C)(C)C)CC1 (centres unmarked) [MN1246] | – | inhibited the growth | inhibited the growth | inhibited the growth | – | severely inhibited growth | – | – | – |
